Earlier results, collected in US20200054560A1 (Alnova Pharmaceuticals, Ltd., priority 2017, published 2020).

solubility in N,N-dimethylformamide (N,N-dimethylformamide): slightly soluble
solubility above pH 4 (above pH 4): reduces significantly
solubility behaviour at or below pH 4 (at or below pH 4): high-solubility compound
solubility in dimethyl sulfoxide (dimethyl sulfoxide): slightly soluble
solubility in methanol (methanol): very slightly soluble
solubility in water (water): very slightly soluble
SMILES: CC(=O)c1c(C)c2cnc(Nc3ccc(N4CCNCC4)cn3)nc2n(C2CCCC2)c1=O [Palbociclib, 6-acetyl-8-cyclopentyl-5-methil-2-(5-piperazin-1-yl-pyridin-2-ylamino)-8H-pyrido [2,3-d] pyridin-7-one]
